{
  "source": "patent US20240335431A1",
  "about": "“1-H-PYRROLO[2,3-c]PYRIDINE COMPOUNDS” (Acerta Pharma B.V., priority 2023, published 2024)",
  "key": {"Menin protein": {"molecular_target": "Menin protein (Homo sapiens (Human), UniProt O00255)", "sequence (O00255 whole entry)": "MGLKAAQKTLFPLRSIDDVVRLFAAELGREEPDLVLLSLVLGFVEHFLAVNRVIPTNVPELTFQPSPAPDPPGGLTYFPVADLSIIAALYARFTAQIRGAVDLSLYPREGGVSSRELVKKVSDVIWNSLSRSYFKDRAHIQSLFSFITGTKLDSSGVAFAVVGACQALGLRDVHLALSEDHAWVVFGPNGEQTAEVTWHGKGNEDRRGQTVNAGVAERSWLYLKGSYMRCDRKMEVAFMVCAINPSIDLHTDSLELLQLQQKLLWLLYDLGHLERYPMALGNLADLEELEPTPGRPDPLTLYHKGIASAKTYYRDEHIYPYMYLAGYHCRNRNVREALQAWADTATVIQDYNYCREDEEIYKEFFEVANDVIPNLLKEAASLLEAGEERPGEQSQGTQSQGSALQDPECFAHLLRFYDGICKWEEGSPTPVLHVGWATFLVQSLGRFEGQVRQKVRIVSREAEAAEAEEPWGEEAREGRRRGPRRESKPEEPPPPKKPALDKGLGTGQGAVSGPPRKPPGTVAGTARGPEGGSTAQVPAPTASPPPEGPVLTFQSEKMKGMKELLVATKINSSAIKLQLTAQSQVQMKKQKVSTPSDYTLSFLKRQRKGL", "assay": "Menin protein degradation in MV-4-11 SILAC cells (pulse SILAC, PRM)", "format": "cell-based", "conditions": "300 nM", "experimental": "An MV-4-11 cell line was passaged at least eight times in SILAC-IMDM (ThermoFisher, #88367), which lacks L-lysine and L-arginine, and supplemented with 10% (v/v) dialyzed FBS (ThermoFisher, #A3382001), [^13C6, ^15N2]-L-lysine, and [^13C6, ^15N4]-L-arginine (Sigma #608041 and #608033) (100 μg/mL each) to achieve “heavy cell” status as determined by LC-MS/MS. Whenever thawed, the “heavy-labelled” cells were passaged at least three times before use in experiments. “Light” medium was prepared by supplementing SILAC-IMDM with 10% (v/v) dialyzed FBS and unlabeled L-arginine and L-lysine (Sigma, #A6969, #L8662). SILAC-IMDM was either supplemented with 300 nM of Compound 56-2 (10 mM solution in DMSO) or the equivalent amounts of DMSO as control. Cells were transferred to “light” media, incubated at 37° C., 5% CO2, and collected at various time points (0 hrs, 1 hrs, 2 hrs, 4.25 hrs, 10.25 hrs, 20.75 hrs, 28.5 hrs, 47 hrs, 72 hrs) by two washes with ice cold PBS and pelleted by centrifugation.\nCell pellets (approximately 2×10^5 cells) were transferred to 96-well plate using cell lysis buffer (4% SDS, 50 mM HEPES pH 7.4, 5 mM TCEP, and 10 mM chloroacetamide) and heated to 95° C. for 10 minutes. […] The PRM data were analyzed with Skyline (University of Washington, Seattle, WA., Ref.) using high-selectivity data extraction. […]"}, "MOLM-13 AML cells": {"tested_on": "MOLM-13 AML cells", "assay": "MLLr AML xenograft model MOLM-13", "format": "in vivo, female CB17 SCID mice", "conditions": "for tumor response (in words): 30 mg/kg", "experimental": "MOLM-13 cells were grown in RPM1 1640 (Gibco, #21875091) supplemented with 10% FBS (Gibco; #10091-148) and 1% Pen/Strep (Gibco; #15140-122). Cells were harvested and resuspended in PBS/Matrigel (Corning; #CLS354234) (50/50). Compound 56-2 was formulated in water at pH 4.5-5 using 1 M MSA as pH-adjusting agent at the concentrations up to 100 mg/mL to achieve a uniform suspension and dosed twice daily by oral gavage 10 mL/kg.\n1 million human MOLM-13 AML cells were implanted subcutaneously in the right flank of female CB17 SCID mice. Mice were randomized into groups of 5 when average tumor volume reached approximately 160 mm^3. Mice were treated for 21 days with vehicle (water at pH 4.5-5 using 1 M MSA) or Compound 56-2 at 30, 100, or 200 mg/kg. Test compound was dosed orally twice daily 8/16 hours apart. The group administered Compound 56-2 at 30, 100, 200 mg/kg were monitored for regrowth for 3 weeks. […] FIG. 2A illustrates the effect of treatment with Compound 56-2 on tumor volume in this MLLr MOLM-13 human AML cancer xenograft mouse model.\nIn a second cohort of mice, MOLM-13 AML cells were implanted and randomized as described above. Mice were treated until tumor outgrowth with vehicle (water at pH 4.5-5 using 1 M MSA) or Compound 56-2 at 30 mg/kg or 150 mg/kg. Test compound was dosed orally twice daily 8/16 hours apart. […] FIG. 2B illustrates the effect of treatment with Compound 56-2 on tumor volume in this MLLr MOLM-13 human AML cancer xenograft mouse model."}, "MV-4-11 AML cells": {"tested_on": "MV-4-11 AML cells", "assay": "MLLr AML xenograft model MV-4-11", "format": "in vivo, female CB17 SCID mice", "conditions": "for % REGRESSION AT DOSING END / % TUMOR REGROWTH AT STUDY END: 14 days", "experimental": "MV-4-11 cells were grown in RPM1 1640 (Gibco, #21875091) supplemented with 10% FBS (Gibco; #10091-148) and 1% Pen/Strep (Gibco; #15140-122). Cells were harvested and resuspended in PBS/Matrigel (Corning; #CLS354234) (50/50). The compound of Example 56-2 was formulated in water at pH 4.5-5 using 1 M MSA as pH-adjusting agent at the concentrations up to 100 mg/mL to achieve a uniform suspension and dosed twice daily by oral gavage 10 mL/kg. For convenience, the compound of Example 56-2 is referred to as “Compound 56-2” in this Example and the other Examples.\n10 million human MV-4-11 AML cells were implanted subcutaneously in the right flank of female CB17 SCID mice. Mice were randomized into groups of 5 when average tumor volume reached approximately 160 mm^3. Mice were treated for 14 days with vehicle (water at pH 4.5-5 using 1M MSA) or Compound 56-2 at 30, 100, or 200 mg/kg. Compound 56-2 was dosed orally twice daily 8/16 hours apart. The group administered Compound 56-2 at 30, 100, 200 mg/kg were monitored for regrowth for 6 weeks. […] FIG. 1 illustrates the effect of treatment with Compound 56-2 on tumor volume in this MLLr MV-4-11 human AML cancer xenograft mouse model."}, "[1]": {"conditions": "second cohort, 30 mg/kg oral twice daily, 41 days or less"}},
  "data": [
    {"smiles": "Cc1c(C(=O)C2CCN(C(=O)[C@@H]3CCC(C)(C)N3)CC2)c2ccncc2n1-c1ccc(F)cc1C(=O)N(C(C)C)C(C)C", "note": "(single isomer, unassigned) [Compound 56-2]", "values": [
      {"measurement": "kdeg (rate of degradation of heavy Menin protein)", "setting": "Menin protein", "value": "3.89e-05", "unit": "s⁻¹"},
      {"measurement": "% REGRESSION AT END OF TREATMENT", "setting": "MOLM-13 AML cells; 30 mg/kg oral twice daily, 21 days", "value": 6.2, "unit": "%"},
      {"measurement": "% TUMOR REGROWTH AT STUDY END", "setting": "MOLM-13 AML cells; 30 mg/kg oral twice daily, 21 days, monitored 3 weeks", "value": 100, "unit": "%"},
      {"measurement": "tumor response (in words)", "setting": "MOLM-13 AML cells; 21 days", "value": "outgrew after treatment end"},
      {"measurement": "tumor response at end of treatment (in words)", "setting": "MOLM-13 AML cells; 100 mg/kg and 200 mg/kg, 21 days", "value": "complete tumor regressions"},
      {"measurement": "% REGRESSION AT END OF TREATMENT", "setting": "MOLM-13 AML cells; 100 mg/kg oral twice daily, 21 days", "value": 89.8, "unit": "%"},
      {"measurement": "% TUMOR REGROWTH AT STUDY END", "setting": "MOLM-13 AML cells; 100 mg/kg oral twice daily, 21 days, monitored 3 weeks", "value": 80, "unit": "%"},
      {"measurement": "% REGRESSION AT END OF TREATMENT", "setting": "MOLM-13 AML cells; 200 mg/kg oral twice daily, 21 days", "value": 98.5, "unit": "%"},
      {"measurement": "% TUMOR REGROWTH AT STUDY END", "setting": "MOLM-13 AML cells; 200 mg/kg oral twice daily, 21 days, monitored 3 weeks", "value": 100, "unit": "%"},
      {"measurement": "% REGRESSION AT END OF TREATMENT", "setting": "MOLM-13 AML cells; [1]", "value": 0, "unit": "%"},
      {"measurement": "% TUMOR REGROWTH AT STUDY END", "setting": "MOLM-13 AML cells; [1]", "value": 0, "unit": "%"},
      {"measurement": "tumor response (in words)", "setting": "MOLM-13 AML cells; second cohort, 41 days or less", "value": "all animals outgrew treatment"},
      {"measurement": "% REGRESSION AT END OF TREATMENT", "setting": "MOLM-13 AML cells; second cohort, 150 mg/kg oral twice daily, 90 days", "value": 100, "unit": "%"},
      {"measurement": "tumor response at end of treatment (in words)", "setting": "MOLM-13 AML cells; second cohort, 150 mg/kg, 90 days", "value": "complete tumor regression"},
      {"measurement": "% TUMOR REGROWTH AT STUDY END", "setting": "MOLM-13 AML cells; second cohort, 150 mg/kg, 90 days, monitored additional 70 days", "value": 100, "unit": "%"},
      {"measurement": "% REGRESSION AT DOSING END", "setting": "MV-4-11 AML cells; 30 mg/kg oral twice daily", "value": 88, "unit": "%"},
      {"measurement": "% TUMOR REGROWTH AT STUDY END", "setting": "MV-4-11 AML cells; 30 mg/kg oral twice daily, monitored 6 weeks", "value": 100, "unit": "%"},
      {"measurement": "tumor regrowth (in words)", "setting": "MV-4-11 AML cells; 100 mg/kg and 200 mg/kg, monitored 6 weeks", "value": "no tumor regrowth"},
      {"measurement": "% REGRESSION AT DOSING END", "setting": "MV-4-11 AML cells; 100 mg/kg oral twice daily", "value": 97, "unit": "%"},
      {"measurement": "% TUMOR REGROWTH AT STUDY END", "setting": "MV-4-11 AML cells; 100 mg/kg oral twice daily, monitored 6 weeks", "value": 0, "unit": "%"},
      {"measurement": "% REGRESSION AT DOSING END", "setting": "MV-4-11 AML cells; 200 mg/kg oral twice daily", "value": 99, "unit": "%"},
      {"measurement": "% TUMOR REGROWTH AT STUDY END", "setting": "MV-4-11 AML cells; 200 mg/kg oral twice daily, monitored 6 weeks", "value": 0, "unit": "%"}
    ]}
  ]
}
